From ChEMBL document CHEMBL1201862, “PubChem BioAssay data set” (2004)
Active and inactive are the calls of the source.

Assays:
[1] = M. tuberculosis H37Rv growth inhibitors, H37Rv strain (AID 1626); format: functional
[2] = target: Paired box protein Pax-8 (Homo sapiens, UniProt Q06710); test: inhibitors of PAX8-driven TPO luciferase reporter, dose response, RMG-I cells, cherry-pick (AID 687027); format: functional, cell-based;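 note: luciferase reporter driven by Pax8 target thyroperoxidase promoter measured by SteadyGlo luminescence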
[3] = NIH:OVCAR-3 ovarian cancer cell cytotoxicity, dose response, PAX8 inhibitor project, plate reader, dry powder samples (AID 743044); format: functional, cell-based
[4] = IGROV1 ovarian cancer cell cytotoxicity, dose response, PAX8 inhibitor project, plate reader, dry powder samples (AID 743043); format: functional, cell-based; settings: IGROV-1
[5] = non-specific cell cytotoxicity, dose response, cytotoxicity control for PAX8 inhibitor project, plate reader, dry powder samples (AID 743021); format: functional, cell-based
[6] = cytotoxicity in OVCAR8 ovarian cancer cells, dose response, PAX8 project, cell-based, plate reader, dry powder samples (AID 743197); format: functional; settings: OVCAR-8
[7] = inhibitors of PGC1a acetylation in cells, dose response, cell-based, cherry-picked samples (AID 720514); format: functional;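 note: potency may reflect raised or lowered acetylation signal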
[8] = Luminescence-based cell-based high throughput dose response assay to identify activators of the DAF-12 from the parasite S. stercoralis (ssDAF-12).; format: functional
[9] = target: T1, Oxysterols receptor LXR-beta (Homo sapiens, UniProt P55055); test: LXR agonists, Gal4 luciferase reporter, dose response, counter-screen for ssDAF-12 agonist project, cell-based, luminescence, HEK293, S. stercoralis campaign (AID 720737); format: functional; settings: read-out: IC50 (the source's name)
T1 sequence (P55055 whole entry): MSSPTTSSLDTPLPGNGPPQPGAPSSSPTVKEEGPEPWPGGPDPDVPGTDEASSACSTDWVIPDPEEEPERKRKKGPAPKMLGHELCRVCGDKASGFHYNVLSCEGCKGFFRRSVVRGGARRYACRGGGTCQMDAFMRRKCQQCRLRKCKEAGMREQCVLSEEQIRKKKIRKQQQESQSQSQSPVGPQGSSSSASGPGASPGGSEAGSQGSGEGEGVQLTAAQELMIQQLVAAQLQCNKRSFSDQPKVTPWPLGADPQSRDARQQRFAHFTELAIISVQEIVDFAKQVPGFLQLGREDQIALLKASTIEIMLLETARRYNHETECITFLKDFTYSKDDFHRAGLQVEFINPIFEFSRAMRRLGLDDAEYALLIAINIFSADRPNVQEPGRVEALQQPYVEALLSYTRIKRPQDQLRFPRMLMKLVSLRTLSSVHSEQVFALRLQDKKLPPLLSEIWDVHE

[10] = target: Voltage-dependent T-type calcium channel subunit alpha-1H (Homo sapiens, UniProt O95180); format: functional;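 note: channel activity triggered by adding a high calcium stimulation buffer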
[11] = target: T2, Coagulation factor XII (Homo sapiens, UniProt P00748); format: functional;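 note: activated factor XIIa alpha cleaving a fluorogenic AMC peptide substrate; inhibitor potency from loss of enzyme activity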
T2 sequence (P00748 whole entry): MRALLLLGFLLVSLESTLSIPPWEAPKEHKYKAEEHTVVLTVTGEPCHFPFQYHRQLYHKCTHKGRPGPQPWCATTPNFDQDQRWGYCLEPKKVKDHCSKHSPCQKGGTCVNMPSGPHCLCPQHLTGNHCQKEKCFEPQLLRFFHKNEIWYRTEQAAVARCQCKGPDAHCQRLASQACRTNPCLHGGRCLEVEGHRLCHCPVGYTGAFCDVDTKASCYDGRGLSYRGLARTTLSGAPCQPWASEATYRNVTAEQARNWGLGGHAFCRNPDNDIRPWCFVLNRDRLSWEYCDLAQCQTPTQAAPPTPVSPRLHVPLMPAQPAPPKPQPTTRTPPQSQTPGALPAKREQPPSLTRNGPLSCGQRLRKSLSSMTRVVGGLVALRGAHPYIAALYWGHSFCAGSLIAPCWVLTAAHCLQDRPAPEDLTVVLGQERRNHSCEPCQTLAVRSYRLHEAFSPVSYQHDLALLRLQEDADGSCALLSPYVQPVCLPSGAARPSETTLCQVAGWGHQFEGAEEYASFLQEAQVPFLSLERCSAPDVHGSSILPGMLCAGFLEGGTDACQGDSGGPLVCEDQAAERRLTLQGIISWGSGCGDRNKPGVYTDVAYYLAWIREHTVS

[12] = cells; format: functional, cell-based
[13] = target: T3, Trace amine-associated receptor 1 (Homo sapiens, UniProt Q96RJ0); test: Fluorescence-based cell-based high throughput dose response assay to identify agonists of the human trace amine associated receptor 1 (TAAR1).; format: functional
T3 sequence (Q96RJ0 whole entry): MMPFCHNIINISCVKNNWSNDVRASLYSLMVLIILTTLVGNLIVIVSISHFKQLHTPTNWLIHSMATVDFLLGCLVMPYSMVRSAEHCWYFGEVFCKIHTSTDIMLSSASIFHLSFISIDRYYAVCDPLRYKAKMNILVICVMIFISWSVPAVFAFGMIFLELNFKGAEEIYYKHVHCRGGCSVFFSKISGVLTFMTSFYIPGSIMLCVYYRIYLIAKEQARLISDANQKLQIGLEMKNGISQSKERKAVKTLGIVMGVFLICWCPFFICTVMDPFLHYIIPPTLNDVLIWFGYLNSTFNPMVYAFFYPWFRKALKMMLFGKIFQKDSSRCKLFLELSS

[14] = target: T3, Trace amine-associated receptor 1; test: Counterscreen for agonists of the human trace amine associated receptor 1 (hTAAR1): Fluorescence-based cell-based high throughput dose response assay to identify hTAAR1 agonist that also desensitize TAAR1 receptor response.; format: functional
[15] = cells; format: functional, cell-based; remark: listed apart in the source
[16] = target: Genome polyprotein (dengue virus type 2, UniProt P29990); test: Dengue-2 NS5 methyltransferase inhibitors, primary screen, biochemical, confirmation dose response (AID 588689); format: functional
[17] = target: T4, Caspase-6 (Homo sapiens, UniProt P55212); test: human caspase-6 inhibitors, dose response, biochemical, VEID-R110 fluorescence, cherry-pick (AID 720632)
T4 sequence (P55212 whole entry): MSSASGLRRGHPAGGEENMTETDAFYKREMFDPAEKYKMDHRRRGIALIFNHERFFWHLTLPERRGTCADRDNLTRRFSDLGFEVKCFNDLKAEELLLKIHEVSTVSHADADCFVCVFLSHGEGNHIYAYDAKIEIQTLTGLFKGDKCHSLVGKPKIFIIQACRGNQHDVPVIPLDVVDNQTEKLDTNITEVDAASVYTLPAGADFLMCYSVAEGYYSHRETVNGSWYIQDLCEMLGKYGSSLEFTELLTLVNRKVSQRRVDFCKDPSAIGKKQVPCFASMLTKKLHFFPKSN

[18] = target: Major prion protein (Homo sapiens, UniProt P04156); format: functional, cell-based
[19] = cells
[20] = inhibitors of intracellular T. cruzi replication, confirmation, NIH3T3 host cells, beta-gal luminescence (AID 2044); format: functional, cell-based;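 note: intracellular parasites grown in NIH/3T3 mouse fibroblasts as host cells; luminescent beta-galactosidase reporter signal from transgenic T. cruzi replicating inside host cells; inhibitors lower the luminescence signal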
[21] = cytotoxicity toward NIH3T3 fibroblasts, dose response, counter-screen, cell-based, ATP luminescence, mouse fibroblasts (AID 2010); format: functional;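 note: cells exposed to compound for about 90 hours before reading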
[22] = target: T5, Mannose-6-phosphate isomerase (Homo sapiens, UniProt P34949); test: human PMI inhibitors, high substrate, primary screen, biochemical, fluorescence intensity, high mannose 6-phosphate (AID 1220)
T5 sequence (P34949 whole entry): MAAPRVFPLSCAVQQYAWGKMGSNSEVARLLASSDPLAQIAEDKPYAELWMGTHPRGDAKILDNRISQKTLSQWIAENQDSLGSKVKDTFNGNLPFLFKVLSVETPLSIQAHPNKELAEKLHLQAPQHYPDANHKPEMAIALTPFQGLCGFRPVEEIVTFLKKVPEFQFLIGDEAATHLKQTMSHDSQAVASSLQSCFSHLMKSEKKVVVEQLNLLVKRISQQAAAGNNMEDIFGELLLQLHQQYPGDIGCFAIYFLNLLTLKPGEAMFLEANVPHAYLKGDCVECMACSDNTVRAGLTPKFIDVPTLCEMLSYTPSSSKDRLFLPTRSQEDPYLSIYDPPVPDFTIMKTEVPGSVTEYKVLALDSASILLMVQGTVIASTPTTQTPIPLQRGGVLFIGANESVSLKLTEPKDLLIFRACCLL

[23] = target: T6, Protein RecA (Mycobacterium tuberculosis, UniProt P9WHJ3); test: Fluorescence Cell-Free Homogeneous Dose Retest to Identify Inhibitors of RecA-Intein Splicing Activity. [Related pubchem assays (depositor defined):AID2097, AID2223, AID489010, AID492950]; format: functional
T6 sequence (P9WHJ3 whole entry): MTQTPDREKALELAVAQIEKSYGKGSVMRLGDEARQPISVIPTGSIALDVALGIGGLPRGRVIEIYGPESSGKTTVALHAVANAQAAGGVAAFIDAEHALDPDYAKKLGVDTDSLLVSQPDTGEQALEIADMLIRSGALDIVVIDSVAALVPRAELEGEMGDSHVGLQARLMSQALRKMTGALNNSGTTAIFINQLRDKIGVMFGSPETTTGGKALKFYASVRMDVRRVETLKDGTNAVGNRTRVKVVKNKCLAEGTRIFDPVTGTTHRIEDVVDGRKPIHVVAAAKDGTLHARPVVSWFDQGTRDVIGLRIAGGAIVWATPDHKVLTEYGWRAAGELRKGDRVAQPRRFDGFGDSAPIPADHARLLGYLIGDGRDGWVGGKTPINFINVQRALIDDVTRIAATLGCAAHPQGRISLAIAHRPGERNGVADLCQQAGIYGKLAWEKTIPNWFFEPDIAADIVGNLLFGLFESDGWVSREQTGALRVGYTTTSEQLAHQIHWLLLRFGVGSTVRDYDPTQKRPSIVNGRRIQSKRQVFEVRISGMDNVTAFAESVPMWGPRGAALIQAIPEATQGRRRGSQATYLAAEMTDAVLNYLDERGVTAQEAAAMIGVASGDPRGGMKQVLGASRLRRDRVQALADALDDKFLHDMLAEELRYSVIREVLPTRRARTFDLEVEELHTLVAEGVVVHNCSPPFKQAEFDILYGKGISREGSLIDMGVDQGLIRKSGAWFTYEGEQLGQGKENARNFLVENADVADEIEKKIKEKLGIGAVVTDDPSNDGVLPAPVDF

[24] = A549 cell cytotoxicity, dose response, cytotoxicity control, plate reader, cherry-pick, antagonist series (AID 743412); format: functional, cell-based
[25] = HepG2 cell cytotoxicity, dose response, cytotoxicity control, plate reader, cherry-pick, antagonist series (AID 743416); format: functional, cell-based
[26] = MC4R antagonists, dose response, counter-screen for LGR2 antagonist project, cell-based, plate reader, cherry pick (AID 743444); format: functional;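 note: transfected HEK 293 cells stimulated with alpha-MSH peptide; potency of inhibitors of the alpha-MSH evoked signal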
[27] = HEK293 cell cytotoxicity, dose response, cytotoxicity control, plate reader, cherry-picked samples (AID 743446); format: functional, cell-based

Sequence of Paired box protein Pax-8 (Q06710 whole entry): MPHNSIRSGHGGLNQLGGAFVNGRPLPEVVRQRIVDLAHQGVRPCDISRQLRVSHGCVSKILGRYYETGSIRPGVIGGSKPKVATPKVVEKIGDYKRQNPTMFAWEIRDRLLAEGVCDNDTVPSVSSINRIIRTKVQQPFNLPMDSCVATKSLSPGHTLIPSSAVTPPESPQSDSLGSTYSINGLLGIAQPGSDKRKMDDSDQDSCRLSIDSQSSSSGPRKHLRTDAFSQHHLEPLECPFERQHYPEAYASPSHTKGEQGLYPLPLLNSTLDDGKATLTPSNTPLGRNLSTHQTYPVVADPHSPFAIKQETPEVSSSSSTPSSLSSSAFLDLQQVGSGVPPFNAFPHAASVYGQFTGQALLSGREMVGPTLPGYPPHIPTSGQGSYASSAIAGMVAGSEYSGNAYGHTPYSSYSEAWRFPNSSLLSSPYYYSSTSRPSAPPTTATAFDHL
Sequence of Voltage-dependent T-type calcium channel subunit alpha-1H (O95180 whole entry): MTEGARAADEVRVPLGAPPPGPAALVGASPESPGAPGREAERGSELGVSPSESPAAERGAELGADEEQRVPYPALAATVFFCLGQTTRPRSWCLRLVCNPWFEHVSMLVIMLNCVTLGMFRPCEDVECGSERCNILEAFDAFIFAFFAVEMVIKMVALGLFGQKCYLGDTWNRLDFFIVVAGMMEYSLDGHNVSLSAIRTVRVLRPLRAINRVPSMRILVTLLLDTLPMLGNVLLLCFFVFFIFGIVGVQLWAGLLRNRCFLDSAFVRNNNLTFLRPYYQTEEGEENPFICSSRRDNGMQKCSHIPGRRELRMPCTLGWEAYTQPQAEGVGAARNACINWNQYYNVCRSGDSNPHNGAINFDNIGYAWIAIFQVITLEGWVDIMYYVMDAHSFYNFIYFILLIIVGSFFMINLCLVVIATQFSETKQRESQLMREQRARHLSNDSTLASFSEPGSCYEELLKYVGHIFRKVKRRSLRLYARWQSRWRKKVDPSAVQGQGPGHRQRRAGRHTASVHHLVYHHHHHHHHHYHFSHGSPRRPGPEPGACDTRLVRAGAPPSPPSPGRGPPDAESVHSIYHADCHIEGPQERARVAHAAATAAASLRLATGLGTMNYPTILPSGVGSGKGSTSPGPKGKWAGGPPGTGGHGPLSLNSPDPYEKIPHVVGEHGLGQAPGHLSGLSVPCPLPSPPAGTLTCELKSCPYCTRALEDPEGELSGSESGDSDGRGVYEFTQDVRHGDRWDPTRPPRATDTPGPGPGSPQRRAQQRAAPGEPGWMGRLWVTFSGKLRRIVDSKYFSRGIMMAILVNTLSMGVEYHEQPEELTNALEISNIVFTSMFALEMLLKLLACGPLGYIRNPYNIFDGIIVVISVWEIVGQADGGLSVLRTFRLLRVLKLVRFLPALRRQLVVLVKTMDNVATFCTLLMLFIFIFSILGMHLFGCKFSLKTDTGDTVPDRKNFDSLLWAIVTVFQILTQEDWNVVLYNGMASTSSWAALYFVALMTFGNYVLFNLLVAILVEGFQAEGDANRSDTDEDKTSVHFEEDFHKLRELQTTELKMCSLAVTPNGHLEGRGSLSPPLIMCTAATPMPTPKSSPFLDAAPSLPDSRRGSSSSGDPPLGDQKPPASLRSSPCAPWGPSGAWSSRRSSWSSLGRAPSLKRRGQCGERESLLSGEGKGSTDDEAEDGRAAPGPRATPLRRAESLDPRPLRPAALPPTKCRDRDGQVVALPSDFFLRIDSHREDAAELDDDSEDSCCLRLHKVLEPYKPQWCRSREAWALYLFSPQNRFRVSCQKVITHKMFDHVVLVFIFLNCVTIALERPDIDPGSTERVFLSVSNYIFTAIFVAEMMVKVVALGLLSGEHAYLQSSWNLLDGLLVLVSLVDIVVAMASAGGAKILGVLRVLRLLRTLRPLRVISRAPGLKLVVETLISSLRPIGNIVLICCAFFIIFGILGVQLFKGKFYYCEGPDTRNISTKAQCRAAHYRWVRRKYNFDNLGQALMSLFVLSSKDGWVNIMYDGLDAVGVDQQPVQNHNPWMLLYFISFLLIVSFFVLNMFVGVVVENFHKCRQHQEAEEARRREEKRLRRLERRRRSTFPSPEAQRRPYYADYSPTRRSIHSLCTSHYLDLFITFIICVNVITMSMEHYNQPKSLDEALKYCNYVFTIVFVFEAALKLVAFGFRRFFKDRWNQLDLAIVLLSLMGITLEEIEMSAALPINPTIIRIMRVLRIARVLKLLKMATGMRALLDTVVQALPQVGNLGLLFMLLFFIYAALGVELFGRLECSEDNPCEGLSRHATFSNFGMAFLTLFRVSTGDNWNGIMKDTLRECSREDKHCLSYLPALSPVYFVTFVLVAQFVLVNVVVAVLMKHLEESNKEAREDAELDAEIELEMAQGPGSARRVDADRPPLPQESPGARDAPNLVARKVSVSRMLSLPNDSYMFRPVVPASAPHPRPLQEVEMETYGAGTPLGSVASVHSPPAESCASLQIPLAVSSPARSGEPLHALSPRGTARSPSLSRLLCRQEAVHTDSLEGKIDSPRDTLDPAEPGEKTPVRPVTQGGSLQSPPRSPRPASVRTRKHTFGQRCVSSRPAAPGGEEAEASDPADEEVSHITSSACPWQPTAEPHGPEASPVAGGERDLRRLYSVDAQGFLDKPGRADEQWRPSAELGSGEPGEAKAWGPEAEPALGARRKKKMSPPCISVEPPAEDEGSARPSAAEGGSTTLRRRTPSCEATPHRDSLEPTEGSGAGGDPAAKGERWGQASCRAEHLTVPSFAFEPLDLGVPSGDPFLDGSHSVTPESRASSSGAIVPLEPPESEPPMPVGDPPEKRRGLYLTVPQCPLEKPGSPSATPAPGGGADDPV
Sequence of Genome polyprotein (P29990 2492-3391 limits assumed): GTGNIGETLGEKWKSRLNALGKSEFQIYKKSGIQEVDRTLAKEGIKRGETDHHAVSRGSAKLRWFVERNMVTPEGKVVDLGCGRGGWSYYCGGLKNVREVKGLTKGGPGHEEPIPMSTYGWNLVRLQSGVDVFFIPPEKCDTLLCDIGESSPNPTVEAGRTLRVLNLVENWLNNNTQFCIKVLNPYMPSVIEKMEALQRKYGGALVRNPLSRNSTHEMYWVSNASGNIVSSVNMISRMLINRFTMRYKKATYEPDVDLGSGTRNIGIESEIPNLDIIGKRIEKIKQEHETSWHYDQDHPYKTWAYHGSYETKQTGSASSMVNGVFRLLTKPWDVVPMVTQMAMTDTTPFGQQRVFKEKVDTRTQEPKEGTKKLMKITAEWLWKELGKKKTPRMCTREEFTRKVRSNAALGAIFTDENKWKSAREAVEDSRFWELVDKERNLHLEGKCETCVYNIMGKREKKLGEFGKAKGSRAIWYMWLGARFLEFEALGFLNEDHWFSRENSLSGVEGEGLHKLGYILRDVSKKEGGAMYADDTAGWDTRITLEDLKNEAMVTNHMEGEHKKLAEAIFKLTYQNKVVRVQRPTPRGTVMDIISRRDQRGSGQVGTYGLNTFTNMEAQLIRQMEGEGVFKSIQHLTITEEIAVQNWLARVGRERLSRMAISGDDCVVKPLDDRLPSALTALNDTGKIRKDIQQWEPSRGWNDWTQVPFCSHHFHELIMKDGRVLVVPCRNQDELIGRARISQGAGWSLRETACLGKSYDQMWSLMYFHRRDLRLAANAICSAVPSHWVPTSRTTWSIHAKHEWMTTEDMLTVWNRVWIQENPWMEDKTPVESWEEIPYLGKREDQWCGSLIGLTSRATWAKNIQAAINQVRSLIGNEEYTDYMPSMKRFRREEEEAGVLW

## CC(=O)Nc1cccc(OCc2ccc(F)cc2)c1
[1]
  IC50: > 100 µM (active)

## COc1ccc(-c2ccc([C@@H]3[C@@H]4CN(C(=O)Nc5cccc(F)c5)C[C@H]3N4)cc2)cc1
[2]
  AC50: 5.09 µM (active)
[3]
  AC50: 18.9 µM (active)
[4]
  AC50: 28.4 µM (active)
[5]
  AC50: 41 µM (active)
[6]
  AC50: 58.5 µM (active)

## Cc1ccc(S(=O)(=O)N(C)C[C@H]2Oc3cc(C#Cc4ccncc4)ccc3S(=O)(=O)N([C@H](C)CO)C[C@H]2C)cc1
[2]
  AC50: 4.03 µM (active)
[7]
  AC50: 4.27 µM (active)
[3]
  AC50: 9.03 µM (active)
[6]
  AC50: 17.4 µM (active)

## Cc1ccc(NC(=O)COC(=O)CC2CCCC2)cc1Cl
[1]
  IC50: > 100 µM (active)

## Cc1ccc(NC(=O)c2ccccn2)c(Br)c1
[8]
  IC50: > 67.5 µM (inactive)
[9]
  EC50: > 67.5 µM (inactive)

## Cc1ccc(-c2nc(CS(=O)(=O)CC(=O)N3CCc4ccccc4C3)c(C)o2)cc1
[10]
  EC50: 2.21 µM (active)
[11]
  IC50: > 50 µM (inactive)
[12]
  IC50: > 29.9 µM (inactive)
[13]
  EC50: 2.23 µM (active)
[14]
  IC50: 5.4 µM (active)
[15]
  EC50: > 29.9 µM (inactive)

## COCc1ccc(CN2CCC(n3nccc3NC(=O)c3ccc4c(c3)OCO4)CC2)o1
[7]
  AC50: 29.9 µM (active)

## Cc1ccc(NC(=O)Nc2cccc(C(F)(F)F)c2)nc1
[8]
  IC50: > 67.6 µM (inactive)
[9]
  EC50: > 67.6 µM (inactive)

## COC(=O)c1c(C)oc2c1cc(NS(=O)(=O)c1ccc(C(=O)O)cc1)c1ccccc12
[16]
  IC50: 69 µM (active)
[17]
  AC50: 22.6 µM (active)

## Cc1ccc(Cc2cnc(NC(=O)C3CCCO3)s2)cc1 (stereo not given)
[1]
  IC50: > 100 µM (active)

## COC(=O)C1=C(C)N(Cc2cccc(C(F)(F)F)c2)C(NCc2ccc(OC)cc2)=NC1c1cccc(F)c1 (stereo not given)
[2]
  AC50: 11.5 µM (active)
[5]
  AC50: 33.3 µM (active)

## CN(CC(=O)Nc1cccc(F)c1)C(=O)c1cccc(S(=O)(=O)N2CCN(Cc3ccccc3)CC2)c1
[8]
  IC50: > 67.5 µM (inactive)
[9]
  EC50: > 67.5 µM (inactive)

## Cc1cc(SCCC(=O)O)nc2c(C)cccc12
[18]
  IC50: 4.67 µM (active)
[19]
  IC50: > 138 µM (inactive)

## CCCCn1c(N)c(C(=O)NCc2cccs2)c2nc3ccccc3nc21
[20]
  EC50: 2.83 µM (active)
[21]
  EC50: > 60 µM (not active)
[22]
  IC50: > 50 µM (not active)
[23]
  EC50: 47.4 µM (inconclusive)

## C[C@@H]1CCCCO[C@H](CN(C)CC2CCCCC2)[C@H](C)CN([C@H](C)CO)C(=O)c2cc(NS(=O)(=O)c3ccccc3)ccc2O1
[2]
  AC50: 20.1 µM (active)
[3]
  AC50: 55 µM (active)
[24]
  AC50: 17.1 µM (active)
[25]
  AC50: 27.6 µM (active)
[4]
  AC50: 57.1 µM (active)
[5]
  AC50: 39.7 µM (active)
[26]
  AC50: 42.6 µM (active)
[6]
  AC50: > 70 µM (inactive)
[27]
  AC50: 30.8 µM (active)

## CC(C)C#Cc1ccc2c(c1)O[C@@H](CN(C)Cc1ccccc1)[C@@H](C)CN([C@@H](C)CO)S2(=O)=O
[7]
  AC50: 16 µM (active)
